As usually defined, the IC50 is the concentration at which inhibition is half-maximal. A low value points to inhibition by little substance.

Molecules are shown by their SMILES. Where a name gives a salt, the structure may show the parent alone.

Assay type in all cases: biochemical
The target in test [1] is T1, FAAH (Homo sapiens (Human), UniProt O00519). In words: Assay Method 1: FAAH assay, T84 cell homogenate, 3H-anandamide hydrolysis. As to conditions: 3H-AEA tracer 200 nM, 1 h at rt. The procedure, abridged: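 Homogenate of human T84 cells in pH 9 Tris/EDTA buffer with 0.02% Triton X-100 was incubated with compound and 200 nM final 3H-anandamide for 1 h at rt. Released [3H]ethanolamine was separated from substrate through activated charcoal by centrifugation and quantified by scintillation counting.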
T1 sequence (O00519 whole entry): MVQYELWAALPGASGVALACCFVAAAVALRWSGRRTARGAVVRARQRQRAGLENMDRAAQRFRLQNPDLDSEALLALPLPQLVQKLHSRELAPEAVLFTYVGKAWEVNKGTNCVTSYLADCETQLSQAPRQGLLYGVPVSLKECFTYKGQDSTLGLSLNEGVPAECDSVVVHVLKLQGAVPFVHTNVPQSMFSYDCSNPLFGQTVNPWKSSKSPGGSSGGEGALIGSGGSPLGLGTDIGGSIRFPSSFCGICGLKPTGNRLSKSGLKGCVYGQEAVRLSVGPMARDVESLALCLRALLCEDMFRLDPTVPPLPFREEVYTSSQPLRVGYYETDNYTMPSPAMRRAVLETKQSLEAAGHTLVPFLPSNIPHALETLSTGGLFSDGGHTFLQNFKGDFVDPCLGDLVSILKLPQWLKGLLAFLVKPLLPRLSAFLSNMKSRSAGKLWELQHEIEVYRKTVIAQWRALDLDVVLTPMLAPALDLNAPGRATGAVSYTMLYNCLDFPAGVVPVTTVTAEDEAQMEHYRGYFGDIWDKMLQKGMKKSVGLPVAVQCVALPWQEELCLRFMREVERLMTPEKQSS

The next test addresses rat FAAH (Rattus norvegicus (Rat), UniProt P97612). In words: Assay Method 3: FAAH assay, cells transfected with rat FAAH. The note with it: T84 or rat FAAH-transfected SK-N-MC cell homogenate, 3H-AEA tracer 80 nM, 1 h at rt. The method, then: Assay Method 3 A. Transfection of Cells with Rat FAAH
(§1) A 10-cm tissue culture dish with a confluent monolayer of SK-N-MC cells was split 2 days (d) prior to transfection. Using sterile technique, the media was removed and the cells were detached from the dish by the addition of trypsin. One fifth of the cells were then placed onto a new 10-cm dish. Cells were grown in a 37° C. incubator with 5% CO2 in Minimal Essential Media Eagle with 10% Fetal Bovine Serum. After 2 d, cells were approximately 80% confluent. These cells were removed from the dish with trypsin and pelleted in a clinical centrifuge. The pellet was re-suspended in 400 μL complete media and transferred to an electroporation cuvette with a 0.4 cm gap between the electrodes. Supercoiled rat FAAH cDNA (1 μg) was added to the cells and mixed. The voltage for the electroporation was set at 0.25 kV, and the capacitance was set at 960 μF. After electroporation, the cells were diluted into complete media (10 mL) and plated onto four 10-cm dishes. Because of the variability in the efficiency of electroporation, four different concentrations of cells were plated. The ratios used were 1:20, 1:10, and 1:5, with the remainder of the cells being added to the fourth dish. The cells were allowed to recover for 24 h before adding the selection media (complete media with 600 μg/mL G418). After 10 d, dishes were analyzed for surviving colonies of cells. Dishes with well-isolated colonies were used. Cells from individual colonies were isolated and tested.
(§2) T84 frozen cell pellets or transfected SK-N-MC cells (contents of 1×15 cm culture dishes) were homogenized in 50 mL of FAAH assay buffer (125 mM Tris, 1 mM EDTA, 0.2% Glycerol, 0.02% Triton X-100, 0.4 mM Hepes, pH 9). The assay mixture consisted of 50 μL of the cell homogenate, 10 μL of the test compound, and 40 μL of anandamide [1-^3H-ethanolamine] (^3H-AEA, Perkin-Elmer, 10.3 Ci/mmol), which was added last, for a final tracer concentration of 80 nM. The reaction mixture was incubated at rt for 1 h. During the incubation, 96-well Multiscreen filter plates (catalog number MAFCNOB50; Millipore, Bedford, Mass., USA) were loaded with 25 μL of activated charcoal (Multiscreen column loader, catalog number MACL09625, Millipore) and washed once with 100 μL of MeOH. Also during the incubation, 96-well DYNEX MicroLite plates (catalog number NL510410) were loaded with 100 μL of MicroScint40 (catalog number 6013641, Packard Bioscience, Meriden, Conn., USA). After the 1 h incubation, 60 μL of the reaction mixture were transferred to the charcoal plates, which were then assembled on top of the DYNEX plates using Centrifuge Alignment Frames (catalog number MACF09604, Millipore). The unbound labeled ethanolamine was centrifuged through to the bottom plate (5 min at 2000 rpm), which was preloaded with the scintillant, as described above. The plates were sealed and left at rt for 1 h before counting on a Hewlett Packard TopCount.

The target of test [2] is T1, FAAH. In words: Assay Method 2: FAAH assay, cells transfected with human FAAH. The note with it: T84 or human FAAH-transfected SK-N-MC cell homogenate, 3H-AEA tracer 80 nM, 1 h at rt. As for the experimental part:
Assay Method 2 A. Transfection of Cells with Human FAAH
as §1, with “Supercoiled human” for “Supercoiled rat”, “([…])” for “(1 μg)”
as §2, with “[…]” for “40 μL”

Sequence of rat FAAH (P97612 whole entry): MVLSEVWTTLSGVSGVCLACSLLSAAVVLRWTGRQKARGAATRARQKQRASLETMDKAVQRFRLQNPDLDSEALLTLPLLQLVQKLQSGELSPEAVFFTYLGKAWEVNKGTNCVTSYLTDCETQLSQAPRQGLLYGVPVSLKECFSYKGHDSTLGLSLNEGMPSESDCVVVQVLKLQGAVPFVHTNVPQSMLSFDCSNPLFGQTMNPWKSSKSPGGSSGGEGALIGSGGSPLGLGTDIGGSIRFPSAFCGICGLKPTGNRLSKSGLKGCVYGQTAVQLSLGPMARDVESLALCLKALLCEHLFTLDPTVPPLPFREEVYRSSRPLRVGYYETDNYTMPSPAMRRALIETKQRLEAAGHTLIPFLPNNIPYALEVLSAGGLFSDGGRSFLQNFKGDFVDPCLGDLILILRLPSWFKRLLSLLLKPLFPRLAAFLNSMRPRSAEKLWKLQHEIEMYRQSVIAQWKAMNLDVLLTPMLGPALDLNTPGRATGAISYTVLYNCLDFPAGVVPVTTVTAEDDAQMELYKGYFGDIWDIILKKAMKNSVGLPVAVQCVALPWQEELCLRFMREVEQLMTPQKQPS

As to `COc1cc(Br)cc(CN2CCN(C(=O)Nc3ccccc3)CC2)c1O` [Example 26, 4-(5-Bromo-2-hydroxy-3-methoxy-benzyl)-piperazine-1-carboxylic acid phenylamide], the IC50 at FAAH [1] is 79 nM; against rat FAAH it was 130 nM.
For `O=C(Nc1ccncn1)N1CCN(Cc2ccc(Br)c(Br)c2)CC1` [Example 154, 4-(3,4-Dibromo-benzyl)-piperazine-1-carboxylic acid pyrimidin-4-ylamide], the IC50 was determined as 2000 nM against rat FAAH and 282 nM at FAAH [2].
As to `COC(=O)c1cccc(NC(=O)N2CCN(Cc3cnc4ccccc4c3)CC2)c1` [Example 106, 3-[(4-Quinolin-3-ylmethyl-piperazine-1-carbonyl)-amino]-benzoic acid methyl ester], the values for the IC50 against rat FAAH and against FAAH [2] were 2000 nM and 230 nM, respectively.
As for `O=C(Nc1ccccc1)N1CCN(Cc2ccc3c(c2)OCO3)CC1` [Example B, 4-Benzo[1,3]dioxol-5-ylmethyl-piperazine-1-carboxylic acid phenylamide, reference compound], the values for the IC50 against FAAH [1] and on rat FAAH were 350 nM and 8000 nM, respectively.
The like results for `Cn1c(CN2CCN(C(=O)Nc3ccccc3)CC2)cc2ccccc21` [Example 22, 4-(1-Methyl-1H-indol-2-ylmethyl)-piperazine-1-carboxylic acid phenylamide] were, in that order, 26 nM and 1400 nM.
For the molecule `O=C(Nc1ncccn1)N1CCN(Cc2cnc3ccccc3c2)CC1` [Example 145, 4-Quinolin-3-ylmethyl-piperazine-1-carboxylic acid pyrimidin-2-ylamide], the IC50 against rat FAAH was determined as 10000 nM; against FAAH [2], 8000 nM.
The like results for `O=C(Nc1ncccn1)N1CCN(Cc2ccc3c(c2)OCO3)CC1` [Example 148, 4-Benzo[1,3]dioxol-5-ylmethyl-piperazine-1-carboxylic acid pyrimidin-2-ylamide] were, in that order, 10000 nM and > 10000 nM.
Regarding `O=C(Nc1ccncn1)N1CCN(Cc2cnc3ccccc3c2)CC1` [Example 152, 4-Quinolin-3-ylmethyl-piperazine-1-carboxylic acid pyrimidin-4-ylamide], the IC50 at rat FAAH came to 10000 nM; on FAAH [2], 4000 nM.
Regarding `O=C(Nc1cccnc1)N1CCN(Cc2ccc3c(c2)OCO3)CC1` [Example 146, 4-Benzo[1,3]dioxol-5-ylmethyl-piperazine-1-carboxylic acid pyridin-3-ylamide], the IC50 is 6500 nM at rat FAAH and 380 nM on FAAH [2].
In the case of `O=C(Nc1ccncc1)N1CCN(Cc2ccc3c(c2)OC(F)(F)O3)CC1` [Example 151, 4-(2,2-Difluoro-benzo[1,3]dioxol-5-ylmethyl)-piperazine-1-carboxylic acid pyridin-4-ylamide], the results for the IC50 against rat FAAH and at FAAH [2] were 2000 nM and 1700 nM, respectively.
In the case of `O=C(Nc1ccccc1)N1CCN(Cc2ccc(Cl)c(Cl)c2)CC1` [Example 157, 4-(3,4-Dichloro-benzyl)-piperazine-1-carboxylic acid phenylamide], the IC50 against rat FAAH is 350 nM; on FAAH [2], 65 nM.
Turning to `O=C(Nc1ccc(F)cc1)N1CCN(Cc2ccc3c(c2)OCO3)CC1` [Example G, 4-Benzo[1,3]dioxol-5-ylmethyl-piperazine-1-carboxylic acid (4-fluoro-phenyl)-amide, reference compound], the IC50 was 1600 nM against FAAH [1] and 10000 nM against rat FAAH.
With `O=C(Nc1ccccn1)N1CCN(Cc2cnc3ccccc3c2)CC1` [Example 143, 4-Quinolin-3-ylmethyl-piperazine-1-carboxylic acid pyridin-2-ylamide], the IC50 against rat FAAH amounted to 8000 nM; against FAAH [2], 1800 nM.
As to `O=C(Nc1ccccc1)N1CCN(Cc2ccc(Br)c(Br)c2)CC1` [Example 162, 4-(3,4-Dibromo-benzyl)-piperazine-1-carboxylic acid phenylamide hydrochloride], the IC50 came out at 38 nM on FAAH [1] (hydrochloride) and 270 nM against rat FAAH (hydrochloride).
For the molecule `CN(C(=O)N1CCN(Cc2ccc(Br)c(Br)c2)CC1)c1ccccc1` [Example 160, 4-(3,4-Dibromo-benzyl)-piperazine-1-carboxylic acid methyl-phenyl-amide], the IC50 is 10000 nM at rat FAAH and > 10000 nM on FAAH [2].
As for `O=C(Nc1ccc(F)cc1)N1CCN(Cc2ccc3ccccc3c2)CC1` [Example 57, 4-Naphthalen-2-ylmethyl-piperazine-1-carboxylic acid (4-fluoro-phenyl)-amide], the IC50 at FAAH [1] stood at 54 nM; at rat FAAH it was 430 nM.
Regarding `O=C(Nc1ccccc1)N1CCN(Cc2ccc3ccccc3n2)CC1` [Example 19, 4-Quinolin-2-ylmethyl-piperazine-1-carboxylic acid phenylamide], the half-inhibitory concentration (IC50) on FAAH [1] stood at 19 nM; against rat FAAH, 350 nM.
In the case of `O=C(Nc1ccccc1)N1CCN(Cc2ccc3ccc4cccc5ccc2c3c45)CC1` [Example 68, 4-Pyren-1-ylmethyl-piperazine-1-carboxylic acid phenylamide], the IC50 amounted to 95 nM at FAAH [1] and 610 nM against rat FAAH.
For `O=C(Nc1ccc(F)cc1F)N1CCN(Cc2cnc3ccccc3c2)CC1` [Example 111, 4-Quinolin-3-ylmethyl-piperazine-1-carboxylic acid (2,4-difluoro-phenyl)-amide], in that order: 250 nM and 2000 nM.
For `O=C(Nc1ccccc1F)N1CCN(Cc2cnc3ccccc3c2)CC1` [Example 112, 4-Quinolin-3-ylmethyl-piperazine-1-carboxylic acid (2-fluoro-phenyl)-amide], in that order: 61 nM and 370 nM.

(Values after patent US9169224B2, “Piperazinyl and piperidinyl ureas as modulators of fatty acid amide hydrolase” (Janssen Pharmaceutica NV, priority 2004, dated 2015).)
